{"source": "patent US20220280594A1", "about": "“APPLICATION OF POLYPEPTIDE OR DERIVATIVE THEREOF” (CHENGDU HUITAI BIOMEDICINE CO., LTD., priority 2019, published 2022)", "key": {"[1]": {"system": "human melanoma cells (A375)", "assay": "scratch assay, migration of A375 cells", "type": "cell-based", "conditions": "A375, 10 μM, 48 hours; control group 44.03 ± 6.21", "summary_of_the_method": "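Monolayers scratched, washed with PBS and cultured 48 hours in 2% FBS medium with polypeptides N1-N54 at 10 μM or PBS control, three wells per group. Migration rate (%) = (original − current scratch width)/original width×100, from imaged scratch widths.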"}, "[2]": {"system": "human pancreatic cancer cells (PANC-1)", "assay": "transwell invasion assay, PANC-1 cells", "type": "cell-based", "conditions": "PANC-1 transwell invasion, 10 μM, 24 hours; control group 727 ± 68", "summary_of_the_method": "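Serum-free PANC-1 cells were seeded in matrigel-coated upper chambers with complete medium below. After 4-5 hours at 37° C., peptide was added at 10 μM final. Following 24 hours, invaded cells on the lower membrane surface were fixed, crystal violet-stained, imaged and counted against untreated controls.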"}, "[3]": {"system": "human lung cancer cells (A549) subcutaneous xenograft", "assay": "lung cancer subcutaneous xenograft animal model, intravenous injection", "type": "in vivo, mice (BALB/c-nu/nu)", "conditions": "intravenous 60 mg/kg once every other day, 20 days; for Weight of tumor (g) (mean ± SD): control 2.53 ± 0.17; for Volume of tumor (mm^3) (mean ± SD): control 3373.26 ± 581.44", "summary_of_the_method": "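Female BALB/c-nu/nu mice (4-6 weeks) inoculated subcutaneously with ~2×10^6 A549 cells; grouped once tumours exceeded 100 mm^3. Peptides given intravenously at 60 mg/kg for 20 days versus model control. Tumour weight and volume measured at dissection; body weight recorded every other day.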"}, "[4]": {"system": "human liver adenocarcinoma cells (SK-HEP-1)", "assay": "transwell invasion assay, SK-HEP-1 cells", "type": "cell-based", "conditions": "SK-HEP-1 transwell invasion, 10 μM, 24 hours; control group 767 ± 91", "summary_of_the_method": "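Serum-free SK-HEP-1 cells were seeded in matrigel-coated upper chambers over complete medium. After 4-5 h, peptide was added to the upper chamber at 10 μM final. Following 24 h at 37° C., invaded cells were fixed, crystal violet-stained, imaged and counted.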"}, "[5]": {"system": "human breast cancer cells (MDA-MB-453)", "assay": "scratch assay, migration of MDA-MB-453 cells", "type": "cell-based", "conditions": "MDA-MB-453, 10 μM, 48 hours; control group 32.42 ± 2.04", "summary_of_the_method": "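Confluent MDA-MB-453 monolayers were scratched, then treated with peptide at 10 μM in 2% FBS medium for 48 h, with a PBS control and triplicate wells. Migration rate (%) was taken as (original − current scratch width)/original width ×100 from images.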"}, "[6]": {"system": "human oral epidermoid carcinoma KB cells", "assay": "scratch assay, migration of KB cells", "type": "cell-based", "conditions": "10 μM, 48 hours, control group 54.03 ± 4.21", "summary_of_the_method": "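Monolayers of KB cells were scratched, washed with PBS, then cultured 48 hours in 2% FBS medium containing test polypeptide (10 μM) or PBS control, in triplicate wells. From images, migration rate (%) = (original − current scratch width)/original width × 100.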"}, "[7]": {"system": "human liver cancer cells (HepG2)", "assay": "scratch assay, migration of HepG2 cells", "type": "cell-based", "conditions": "HepG2, 10 μM, 48 hours; control group 71.01 ± 6.63", "summary_of_the_method": "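HepG2 monolayers scratched, then cultured 48 h in 2% FBS medium with test polypeptides at 10 μM versus PBS control, triplicate wells. Migration rate (%) computed from original versus current scratch width in images.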"}, "[8]": {"system": "human breast cancer cells (MCF-7)", "assay": "scratch assay, migration of MCF-7 cells", "type": "cell-based", "conditions": "MCF-7, 10 μM, 48 hours; control group 30.97 ± 1.79", "summary_of_the_method": "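MCF-7 monolayers scratched, then cultured 48 hours in 2% FBS medium with test peptide at 10 μM versus PBS control, triplicate wells. Migration rate (%) = (original − current scratch width)/original width × 100, measured from images.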"}}, "note": "Ends that are not written are not given here. PEG = not defined here", "data": [{"substance": "N52: SEQ ID NO: 1 with N18R, addition of two amino acids and PEG modification at the carboxyl terminal (YRVRFLAKENVTQDAEDRCT-{PEG}; reading uncertain)", "values": [{"measurement": "Migration rate (%) (mean ± SD, P)", "setting": "[1]", "result": "19.57 ± 2.21,** %"}, {"measurement": "Number of cells (mean ± SD, P), invaded cells", "setting": "[2]", "result": "237 ± 27,****"}, {"measurement": "Weight of tumor (g) (mean ± SD)", "setting": "[3]", "result": "0.7 ± 0.2", "unit": "g"}, {"measurement": "Volume of tumor (mm^3) (mean ± SD)", "setting": "[3]", "result": "1425.2 ± 555.76", "unit": "mm^3"}, {"measurement": "Number of cells (mean ± SD, P), invaded cells", "setting": "[4]", "result": "132 ± 29,****"}, {"measurement": "Migration rate (%) (mean ± SD, P)", "setting": "[5]", "result": "13.87 ± 3.13,*** %"}, {"measurement": "Migration rate (%) (mean ± SD, P)", "setting": "[6]", "result": "9.57 ± 1.61,*** %"}, {"measurement": "Migration rate (%) (mean ± SD, P)", "setting": "[7]", "result": "15.39 ± 7.19,*** %"}, {"measurement": "Migration rate (%) (mean ± SD, P)", "setting": "[8]", "result": "7.23 ± 2.41,** %"}]}, {"substance": "N53: SEQ ID NO: 1 with A15R, one amino acid added at each terminal, PEG modification at the carboxyl terminal (FYRVRFLAKENVTQDREDNC-{PEG}; reading uncertain)", "values": [{"measurement": "Migration rate (%) (mean ± SD, P)", "setting": "[1]", "result": "18.83 ± 4.71,** %"}, {"measurement": "Number of cells (mean ± SD, P), invaded cells", "setting": "[2]", "result": "228 ± 25,****"}, {"measurement": "Weight of tumor (g) (mean ± SD)", "setting": "[3]", "result": "0.75 ± 0.27", "unit": "g"}, {"measurement": "Volume of tumor (mm^3) (mean ± SD)", "setting": "[3]", "result": "1549.08 ± 539.99", "unit": "mm^3"}, {"measurement": "Number of cells (mean ± SD, P), invaded cells", "setting": "[4]", "result": "143 ± 19,****"}, {"measurement": "Migration rate (%) (mean ± SD, P)", "setting": "[5]", "result": "8.02 ± 3.35,*** %"}, {"measurement": "Migration rate (%) (mean ± SD, P)", "setting": "[6]", "result": "8.83 ± 1.75,*** %"}, {"measurement": "Migration rate (%) (mean ± SD, P)", "setting": "[7]", "result": "35.85 ± 4.32,** %"}, {"measurement": "Migration rate (%) (mean ± SD, P)", "setting": "[8]", "result": "9.45 ± 2.39,** %"}]}, {"substance": "N54: SEQ ID NO: 1 with A7R, addition of two amino acids and PEG modification at the carboxyl terminal (YRVRFLRKENVTQDAEDNTC-{PEG}; reading uncertain)", "values": [{"measurement": "Migration rate (%) (mean ± SD, P)", "setting": "[1]", "result": "16.91 ± 3.21,** %"}, {"measurement": "Number of cells (mean ± SD, P), invaded cells", "setting": "[2]", "result": "231 ± 26,****"}, {"measurement": "Weight of tumor (g) (mean ± SD)", "setting": "[3]", "result": "0.89 ± 0.37", "unit": "g"}, {"measurement": "Volume of tumor (mm^3) (mean ± SD)", "setting": "[3]", "result": "1381.65 ± 396.21", "unit": "mm^3"}, {"measurement": "Number of cells (mean ± SD, P), invaded cells", "setting": "[4]", "result": "151 ± 28,****"}, {"measurement": "Migration rate (%) (mean ± SD, P)", "setting": "[5]", "result": "3.19 ± 1.08,*** %"}, {"measurement": "Migration rate (%) (mean ± SD, P)", "setting": "[6]", "result": "6.91 ± 3.44,*** %"}, {"measurement": "Migration rate (%) (mean ± SD, P)", "setting": "[7]", "result": "46.62 ± 3.73,** %"}, {"measurement": "Migration rate (%) (mean ± SD, P)", "setting": "[8]", "result": "16.52 ± 2.93,* %"}]}]}
